Reference: ChEMBL document CHEMBL3885881, “DrugMatrix”

Organism: Rattus norvegicus
Test: DrugMatrix - Regimen: Daily Repeat
Type: toxicity, organism-based, Sprague-Dawley
Design: regimen Daily Repeat, gender Male, age 6-8 weeks
Settings: in vivo, po, route oral GAVAGE, […]; for ABSOLUTE BASOPHIL / ABSOLUTE EOSINOPHIL / ABSOLUTE LYMPHOCYTE / ABSOLUTE SEGMENTED NEUTROPHIL / BASOPHIL / EOSINOPHIL / ERYTHROCYTE COUNT / HEMOGLOBIN / LEUKOCYTE COUNT / LYMPHOCYTE / MEAN CORPUSCULAR HEMOGLOBIN / MEAN CORPUSCULAR HEMOGLOBIN CONCENTRATION / MEAN CORPUSCULAR VOLUME / MONOCYTE / NEUTROPHIL / NUCLEATED RED BLOOD CELLS / PLATELET COUNT: tissue Blood; for ALANINE AMINOTRANSFERASE / ALBUMIN / ALKALINE PHOSPHATASE / ASPARTATE AMINOTRANSFERASE / BLOOD UREA NITROGEN / CARBON DIOXIDE / CHLORIDE / CHOLESTEROL / CREATINE PHOSPHOKINASE / CREATININE / GLUCOSE / LACTATE DEHYDROGENASE / LIPASE / PHOSPHORUS / POTASSIUM / SODIUM / TOTAL BILIRUBIN / URIC ACID: tissue Plasma
[1] = 20 mg/kg, 72 h, dose level Low, time 3 day
[2] = 20 mg/kg, 120 h, dose level Low, time 5 day
[3] = 600 mg/kg, 72 h, dose level High, time 3 day
[4] = 600 mg/kg, 120 h, dose level High, time 5 day

## CCCN(CCC)S(=O)(=O)c1ccc(C(=O)O)cc1 [PROBENECID]
[1]
  ABSOLUTE BASOPHIL: 0 CELLS/uL
  ABSOLUTE EOSINOPHIL: 143 CELLS/uL
  ABSOLUTE LYMPHOCYTE: 13997.67 CELLS/uL
  ABSOLUTE SEGMENTED NEUTROPHIL: 1155.67 CELLS/uL
  BASOPHIL: 0%
  EOSINOPHIL: 1%
  ERYTHROCYTE COUNT: 5.57 x10E6/uL
  HEMOGLOBIN: 13.7 G/DL
  LEUKOCYTE COUNT: 15.43 x10E3/uL
  LYMPHOCYTE: 90.33%
  MEAN CORPUSCULAR HEMOGLOBIN: 24.67 pg
  MEAN CORPUSCULAR HEMOGLOBIN CONCENTRATION: 39.3 G/DL
  MEAN CORPUSCULAR VOLUME: 62.8 fL
  MONOCYTE: 1%
  NEUTROPHIL: 7.67%
  NUCLEATED RED BLOOD CELLS: 0 /100WBC
  PLATELET COUNT: 1224.33 x10E3/uL
  ALANINE AMINOTRANSFERASE: 70 u/L
  ALBUMIN: 4 G/DL
  ALKALINE PHOSPHATASE: 531.67 u/L
  ASPARTATE AMINOTRANSFERASE: 87.67 u/L
  BLOOD UREA NITROGEN: 11 mg/dL
  CARBON DIOXIDE: 33.67 mmol/L
  CHLORIDE: 100.67 MEQ/L
  CHOLESTEROL: 81 mg/dL
  CREATINE PHOSPHOKINASE: 196.67 u/L
  CREATININE: 0.13 mg/dL
  GLUCOSE: 157.33 mg/dL
  LACTATE DEHYDROGENASE: 142.33 u/L
  LIPASE: 10.67 u/L
  PHOSPHORUS: 10.83 mg/dL
  POTASSIUM: 6.5 MEQ/L
  SODIUM: 141.87 MEQ/L
  TOTAL BILIRUBIN: 0.13 mg/dL
  URIC ACID: 1.4 mg/dL
[2]
  ABSOLUTE BASOPHIL: 0 CELLS/uL
  ABSOLUTE EOSINOPHIL: 118.67 CELLS/uL
  ABSOLUTE LYMPHOCYTE: 12848.33 CELLS/uL
  ABSOLUTE SEGMENTED NEUTROPHIL: 894.33 CELLS/uL
  BASOPHIL: 0%
  EOSINOPHIL: 0.67%
  ERYTHROCYTE COUNT: 5.43 x10E6/uL
  HEMOGLOBIN: 13.5 G/DL
  LEUKOCYTE COUNT: 14.13 x10E3/uL
  LYMPHOCYTE: 91%
  MEAN CORPUSCULAR HEMOGLOBIN: 25.03 pg
  MEAN CORPUSCULAR HEMOGLOBIN CONCENTRATION: 39.73 G/DL
  MEAN CORPUSCULAR VOLUME: 62.93 fL
  MONOCYTE: 2%
  NEUTROPHIL: 6.33%
  NUCLEATED RED BLOOD CELLS: 0 /100WBC
  PLATELET COUNT: 1072.33 x10E3/uL
  ALANINE AMINOTRANSFERASE: 70.67 u/L
  ALBUMIN: 3.97 G/DL
  ALKALINE PHOSPHATASE: 404.33 u/L
  ASPARTATE AMINOTRANSFERASE: 114.67 u/L
  BLOOD UREA NITROGEN: 13.67 mg/dL
  CARBON DIOXIDE: 29.67 mmol/L
  CHLORIDE: 102 MEQ/L
  CHOLESTEROL: 63.33 mg/dL
  CREATINE PHOSPHOKINASE: 910.33 u/L
  CREATININE: 0.19 mg/dL
  GLUCOSE: 178 mg/dL
  LACTATE DEHYDROGENASE: 364 u/L
  LIPASE: 10.33 u/L
  PHOSPHORUS: 11.13 mg/dL
  POTASSIUM: 6.49 MEQ/L
  SODIUM: 141.5 MEQ/L
  TOTAL BILIRUBIN: 0.23 mg/dL
  URIC ACID: 1.67 mg/dL
[3]
  ABSOLUTE BASOPHIL: 0 CELLS/uL
  ABSOLUTE EOSINOPHIL: 106 CELLS/uL
  ABSOLUTE LYMPHOCYTE: 14409.67 CELLS/uL
  ABSOLUTE SEGMENTED NEUTROPHIL: 2126 CELLS/uL
  BASOPHIL: 0%
  EOSINOPHIL: 0.67%
  ERYTHROCYTE COUNT: 5.2 x10E6/uL
  HEMOGLOBIN: 13.4 G/DL
  LEUKOCYTE COUNT: 16.7 x10E3/uL
  LYMPHOCYTE: 86.33%
  MEAN CORPUSCULAR HEMOGLOBIN: 25.73 pg
  MEAN CORPUSCULAR HEMOGLOBIN CONCENTRATION: 40.6 G/DL
  MEAN CORPUSCULAR VOLUME: 63.43 fL
  MONOCYTE: 0.33%
  NEUTROPHIL: 12.67%
  NUCLEATED RED BLOOD CELLS: 0.33 /100WBC
  PLATELET COUNT: 1182.33 x10E3/uL
  ALANINE AMINOTRANSFERASE: 83.67 u/L
  ALBUMIN: 3.93 G/DL
  ALKALINE PHOSPHATASE: 534.33 u/L
  ASPARTATE AMINOTRANSFERASE: 87 u/L
  BLOOD UREA NITROGEN: 11 mg/dL
  CARBON DIOXIDE: 27.67 mmol/L
  CHLORIDE: 99.67 MEQ/L
  CHOLESTEROL: 58 mg/dL
  CREATINE PHOSPHOKINASE: 599.67 u/L
  CREATININE: 0.18 mg/dL
  GLUCOSE: 155.67 mg/dL
  LACTATE DEHYDROGENASE: 259.33 u/L
  LIPASE: 10.33 u/L
  PHOSPHORUS: 10.97 mg/dL
  POTASSIUM: 6.4 MEQ/L
  SODIUM: 139.6 MEQ/L
  TOTAL BILIRUBIN: 0.27 mg/dL
  URIC ACID: 1.33 mg/dL
[4]
  ABSOLUTE BASOPHIL: 0 CELLS/uL
  ABSOLUTE EOSINOPHIL: 58.67 CELLS/uL
  ABSOLUTE LYMPHOCYTE: 15278 CELLS/uL
  ABSOLUTE SEGMENTED NEUTROPHIL: 1476.33 CELLS/uL
  BASOPHIL: 0%
  EOSINOPHIL: 0.33%
  ERYTHROCYTE COUNT: 6 x10E6/uL
  HEMOGLOBIN: 14.33 G/DL
  LEUKOCYTE COUNT: 16.87 x10E3/uL
  LYMPHOCYTE: 90.67%
  MEAN CORPUSCULAR HEMOGLOBIN: 23.93 pg
  MEAN CORPUSCULAR HEMOGLOBIN CONCENTRATION: 39.6 G/DL
  MEAN CORPUSCULAR VOLUME: 60.4 fL
  MONOCYTE: 0.33%
  NEUTROPHIL: 8.67%
  NUCLEATED RED BLOOD CELLS: 0 /100WBC
  PLATELET COUNT: 1128.33 x10E3/uL
  ALANINE AMINOTRANSFERASE: 55.67 u/L
  ALBUMIN: 4.37 G/DL
  ALKALINE PHOSPHATASE: 404.67 u/L
  ASPARTATE AMINOTRANSFERASE: 96.33 u/L
  BLOOD UREA NITROGEN: 20.33 mg/dL
  CARBON DIOXIDE: 31 mmol/L
  CHLORIDE: 101.67 MEQ/L
  CHOLESTEROL: 55.33 mg/dL
  CREATINE PHOSPHOKINASE: 902 u/L
  CREATININE: 0.25 mg/dL
  GLUCOSE: 169 mg/dL
  LACTATE DEHYDROGENASE: 213.67 u/L
  LIPASE: 10 u/L
  PHOSPHORUS: 10.3 mg/dL
  POTASSIUM: 5.85 MEQ/L
  SODIUM: 142.7 MEQ/L
  TOTAL BILIRUBIN: 0.27 mg/dL
  URIC ACID: 1.8 mg/dL
